Patent US6326014A, “Use of oxamate derivatives as depigmenting agents” (L, Oreal, priority 1997, dated 2001)

System: co-culture of keratinocytes and melanocytes
Assay: Depigmenting activity: inhibition of melanogenesis in co-culture of keratinocytes and melanocytes
Format: cell-based
Conditions: for IC50: keratinocyte/melanocyte co-culture, read-out: IC50 (50% inhibition of melanogenesis)
Procedure: This test corresponds to the one described in patent FR 2,734,825 filed by the Applicant, as well as in the article by R. Schmidt, P. […], Anal. Biochem., 235(2), 113-18, (1996), the entire contents of each of which are hereby incorporated by reference. […] For each test compound, the IC50 value, which corresponds to the micromolar concentration (μM) for which a 50% inhibition of melanogenesis is observed, is determined. Moreover, a class is given to each of these compounds as regards their maximum depigmenting activity: […]

Row | SMILES | Class (maximum depigmenting activity) (at 50 μM) | IC50 [µM] | Class (maximum depigmenting activity) (at 10 μM) | Class (maximum depigmenting activity) (at 500 μM)
1 | CCOC(=O)C(=O)Nc1ccc(O)cc1 [Example 1, Ethyl N-(4-hydroxyphenyl)oxamate] | 3 (60 to 100% inhibition of melanogenesis relative to the control (same experiment without test compound)) | 10 | – | –
2 | O=C(NC[C@H](O)[C@@H](O)[C@H](O)[C@H](O)CO)C(=O)Nc1ccc(O)cc1 [Example 2, N-(4-hydroxyphenyl)-N'-(D-glucamino)oxamide] | – | 10 | 2 (30 to 60% inhibition of melanogenesis relative to the control (same experiment without test compound)) | –
3 | O=c1cc(CO)occ1O [Kojic acid, reference compound] | – | 500 | – | 2 (30 to 60% inhibition of melanogenesis relative to the control (same experiment without test compound))
